Entries after “also recorded” stand apart in the source; their conditions may differ.
Experiments:
human small airway = experiment: Human precision-cut lung slices (PCLS), small airway contraction; conditions: for CCh-induced bronchoconstriction after pretreatment of lung slices: C-027 10^−5 M, formoterol 0.3 nM
Experimental: Human precision-cut lung slices (PCLS) permit evaluation of pharmacological responses of novel drug candidates applied directly to their target tissue.
Human precision-cut lung slices (PCLS, 250 μm thick) containing a small airway were contracted to carbachol, histamine and passively sensitization to induce airway closure±pre-incubation with ICI-735 (10 μM; 2 hours); FIG. 13. For example, human lung slices containing a small airway were incubated overnight with either negative control IgG (4 μg/mL) or positive control IgE (4 μg/mL). The slices were tested as follows: 1) IgG+anti-IgE; 2) IgE+anti-IgE; 3) IgE+Dexamethasone (1 μM)+anti-IgE; and 4) IgE+ICI-735 (10 μM) +anti-IgE. Dexamethasone and ICI-735 were pre-incubated 2 hours prior to anti-IgE; anti-IgE is used to crosslink antibodies and induce mast cell degranulation, which is believed to release histamine and cause airway contract. […]
Human lung tissue contains multiple cell types, including mast cells, that localize in the region of airway smooth muscle, and that increase in number in individuals with asthma. Cross-linking of Fcε;R1 receptors on surfaces of mast cells leads to release of granules that contain smooth muscle contractile agonists, including histamine and leukotrienes.
To test C-027 as a blocker of histamine-induced bronchoconstriction, lung slices were incubated for 2 hours with C-027, and small airway contraction was evaluated after addition of increasing concentrations of histamine.

[1] = Pharmacokinetics, plasma levels in mice; assay type: in vivo, mouse
Experimental: Mice were treated with either 1.0 mg/kg or 10 mg/kg of ICI-735 by way of intraperitoneal administration. The plasma levels of ICI-735 were measured at baseline and various time points following administration (FIG. 6). […] Without wishing to be bound by any particular theory, it is believed that the effectiveness of ICI-735 to treat asthma can be achieved with a low dose (e.g, 1.0 mg/kg dose).
Mice were also treated with either 2.5 mg/kg intravenously or 5 mg/kg orally of ICI-735. The plasma levels of ICI-735 were measured at baseline and various time points following administration (FIG. 7). […] It was determined that oral bioavailability was approximately 20%. Therefore, it is believed that ICI-735 administration orally at approximately 1 mg/kg/day is effective at reducing lung resistence in patients with asthma.

5-HT2A receptor = 5-HT2A receptor (Homo sapiens, UniProt P28223); experiment: Serotonin-receptor binding assay; conditions: 10 μM and 0.1 μM
5-HT2A receptor, sequence (P28223 whole entry): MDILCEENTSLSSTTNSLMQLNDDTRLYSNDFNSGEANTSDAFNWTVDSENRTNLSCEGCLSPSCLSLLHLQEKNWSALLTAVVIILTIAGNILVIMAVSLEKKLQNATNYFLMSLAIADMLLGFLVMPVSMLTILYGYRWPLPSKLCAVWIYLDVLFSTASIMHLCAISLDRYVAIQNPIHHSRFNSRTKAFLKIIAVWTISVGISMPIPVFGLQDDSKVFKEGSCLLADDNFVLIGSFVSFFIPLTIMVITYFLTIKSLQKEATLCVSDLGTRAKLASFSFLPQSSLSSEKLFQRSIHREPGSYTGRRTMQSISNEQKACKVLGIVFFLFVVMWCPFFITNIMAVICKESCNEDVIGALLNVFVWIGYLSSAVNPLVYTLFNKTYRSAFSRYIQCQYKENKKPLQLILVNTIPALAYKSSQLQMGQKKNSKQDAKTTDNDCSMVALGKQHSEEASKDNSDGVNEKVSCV
Text: The methods employed in this study have been adapted from the scientific literature to maximize reliability and reproducibility. The experiments include contacting a serotonin type 1A, 1B, 1D, 2A, 2B, 2C, 3, 4, 5A, 6, and 7 receptor with a test compound and comparing the level of binding of serotonin or a control compound (e.g., fluphenazine) with that serotonin type 1A, 1B, 1D, 2A, 2B, 2C, 3, 4, 5A, 6, and 7 receptor with the level of serotonin binding or control compound binding with an otherwise identical serotonin type 1A, 1B, 1D, 2A, 2B, 2C, 3, 4, 5A, 6, and 7 receptor not contacted with the test compound. […] The skilled artisan would also appreciate, in view of the disclosure provided herein, that standard binding assays known in the art, or those to be developed in the future, can be used to assess the binding of serotonin or a control compound with a serotonin type 1A, 1B, 1D, 2A, 2B, 2C, 3, 4, 5A, 6, and 7 receptor in the presence or absence of the test compound to identify a useful compound.
ICI-735 and fluphenazine were tested for selective binding to 1A, 1B, 1D, 2A, 2B, 2C, 3, 4, 5A, 6, and 7 receptors at concentrations of 10 μM and 0.1 μM.

[2] = system: BALB/c mice, Af-induced allergic airway inflammation and hyperresponsiveness; experiment: Murine Aspergillus fumigatus (Af)-induced asthma model, methacholine-induced lung resistance / airway hyperresponsiveness; assay type: in vivo, mouse
Text: (§1) The following experiments were designed to test the efficacy of the compounds of the invention on a murine asthma model. A murine model of Aspergillus fumigatus (Af)-induced allergic airway inflammation and hyperresponsiveness was adapted from Haczku et al. (2001 Am. J. Respir. Cell Mol. Biol. 25: 45-50) to determine the activity of the candicate compounds (FIG. 2).
Briefly, BALB/c mice were sensitized intraperitoneally and challenged intranasally with Af extract as a form of a type of allergen challenge in the presence or absence of dexamethasone. With respect to sensitization, “naïve” mice received intranasal vehicle challenges only, with phosphate-buffered saline (PBS) where as “sensitized’ mice were injected intraperitoneally with 25 μg Af together with alum in 100 μl of PBS on days 1 and 14, followed by intranasal challenge on days 25, 26, and 27 with 25 μg of Af extract in 40 PBS μl in the presence or absence of dexamethasone (2.5 mg/kg in 100 μl saline). On day 28, sensitized mice were treated with the test compound (0.1, 1.0, 10 mg/kg) either one hour before or simultaneously with methacholine challenge (2.5, 5, 10, 20 mg/mL). Methacholine challenge is to induce airway constriction.
as §1, with “eradicate” for “candicate”, “11).” for “2).”
Briefly, BALB/c mice were sensitized intraperitoneally and challenged intranasally with Af extract as a form of a type of allergen challenge in the presence or absence of dexamethasone. With respect to sensitization, “naïve” mice received intranasal vehicle challenges only, with phosphate-buffered saline (PBS) where as “sensitized’ mice were injected intraperitoneally with 25 μg Af together with alum in 100 μl of PBS on days 1 and 14, followed by intranasal challenge on days 25, 26, and 27 with 25 μg of Af extract in 40 PBS μl in the presence or absence of dexamethasone (2.5 mg/kg in 100 μl saline) in combination with either o.g. treatment with ICI-735 (1 mg/kg or 10 mg/kg) or i.p. treatment with ICI-735 1 mg/kg. On day 28, sensitized mice were treated with methacholine challenge (2.5, 5, 10, 20 mg/mL). Methacholine challenge is to induce airway constriction.
With respect to the murine model of allergen induced AHR, BALB/c mice were sensitized and challenged via intranasal instillation of Aspergillus fumigatus (Af). […] Four hours after the last allergen challenge, airway function was assessed by flexivent. […]

NCC(=O)NCCN1CCN(CCCN2c3ccccc3Sc3ccc(C(F)(F)F)cc32)CC1 [ICI-735]
histamine response at the highest concentration tested (human small airway; 10 μM): does not completely prevent | histamine-induced contraction / bronchoconstriction (human small airway; 2 hours pre-incubation, increasing concentrations of histamine): antagonize; also recorded: blocks; also recorded: prevented | CCh-induced bronchoconstriction after pretreatment of lung slices (human small airway): antagonize; also recorded: prevents and reverses bronchoconstriction | CCh-induced bronchoconstriction after pretreatment of lung slices (human small airway; listed as C-027): blocks | airway contraction to IgE/anti-IgE (passive sensitization, mast cell degranulation) (human small airway; ICI-735 10 μM, dexamethasone 1 μM, pre-incubated 2 hours): antagonize; also recorded: attenuation; also recorded: blocks bronchoconstriction | IL-13-induced airway hyper-responsiveness to CCh (human small airway; IL-13 50 ng/mL overnight, compound one hour prior): diminishes | relaxation of maximally contracted airway smooth muscle (human small airway; in the presence of 30 μM CCh, isoproterenol 10 μM): induces relaxation | plasma levels after oral 5 mg/kg dose versus intravenous 2.5 mg/kg dose [1]: comparable | plasma levels after 1.0 mg/kg dose versus 10 mg/kg dose ([1]; intraperitoneal): comparable | bioavailability ([1]; mouse, plasma, oral, 5 mg/kg orally vs 2.5 mg/kg intravenously): ~20% | binding to 5-HT2A receptor as compared to fluphenazine (5-HT2A receptor): decrease activity; also recorded: decreased binding | AHR in Af sensitized mice ([2]; i.p. 1 mg/ml two hours prior to each intranasal challenge, flexivent four hours after last challenge): significantly inhibited | decrease of lung resistance / airway hyper-responsiveness to methacholine ([2]; intraperitoneal, from 0.1 mg/kg, one hour before or with methacholine challenge, compared with dexamethasone 2.5 mg/kg): at least as effective as 2.5 mg/kg dexamethasone; also recorded: decreased airway hyperresponsiveness | effect on naive animal airway contraction ([2]; naive mice): no effect | decrease of lung resistance / airway hyper-responsiveness to methacholine ([2]; oral (o.g.), 1 mg/kg or 10 mg/kg): effective at decreasing lung resistance

Source: patent publication US20100130457A1, “Phenothiazine Derivatives for Treatment of Asthma” (Immune Control, Inc., priority 2008, published 2010)
